According to patent US20180201609A1 (AURIGENE DISCOVERY TECHNOLOGIES LIMITED, priority 2015, published 2018):
Where a name gives a salt, the structure may show the parent alone.

Target: T1, IRAK-4 enzyme (Homo sapiens, UniProt Q9NWZ3)
T1 construct: purchased Millipore, USA
T1 sequence (Q9NWZ3 1-460): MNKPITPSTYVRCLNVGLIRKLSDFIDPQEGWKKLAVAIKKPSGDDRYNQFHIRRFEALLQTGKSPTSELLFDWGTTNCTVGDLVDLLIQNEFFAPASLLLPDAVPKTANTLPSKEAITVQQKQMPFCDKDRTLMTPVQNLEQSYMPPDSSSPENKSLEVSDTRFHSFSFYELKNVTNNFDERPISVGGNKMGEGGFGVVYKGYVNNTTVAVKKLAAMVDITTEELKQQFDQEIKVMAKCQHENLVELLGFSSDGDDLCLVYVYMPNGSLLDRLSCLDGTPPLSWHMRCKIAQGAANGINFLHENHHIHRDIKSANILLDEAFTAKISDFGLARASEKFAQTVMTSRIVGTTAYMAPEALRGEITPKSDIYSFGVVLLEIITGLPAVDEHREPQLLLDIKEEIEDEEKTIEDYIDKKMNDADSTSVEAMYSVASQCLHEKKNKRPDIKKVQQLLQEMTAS
Test: IRAK-4 Biochemical Assay (TR-FRET)
Conditions: recombinant IRAK-4 kinase, 20 μM ATP; for inhibition at 0.1 µM: 0.1 μM compound; for inhibition at 1 µM: 1 μM compound
Procedure: Compounds were tested for their potential to inhibit IRAK-4 enzyme in a TR-FRET assay using recombinant IRAK-4 kinase from Millipore, USA. The assay buffer was 50 mM Tris-HCl pH 7.5, 20 mM MgCl2, 1 mM EGTA, 2 mM DTT, 3 mM MnCl2 and 0.01% Tween 20.5 ng of IRAK-4 kinase was used for the assay. After pre-incubation of enzyme with test compound for 30 minutes at room temperature, a substrate mixture containing 100 nM Biotin Histone H3 (Millipore, USA) and 20 μM ATP (Sigma, USA) was added and the reaction was incubated for 30 min. Post incubation, the reaction was stopped by the addition of stop mix containing 40 mM EDTA, 1 nM of Europium-Anti-Phospho-Histone H3 (Ser10) antibody (Perkin Elmer, USA) and 20 nM SureLight Allophycocyanin-Streptavidin (Perkin Elmer, USA). The fluorescence emission at 615 nm and 665 nm were measured at an excitation of 340 nm and the percent inhibition was estimated from the ratio of the fluorescence intensities [(F665/F615)×10000].
The compounds of the present invention were screened in the above mentioned assay and the percent inhibition data is summarized in the Table 1.

| Structure (SMILES) | inhibition at 0.1 µM [%] | inhibition at 1 µM [%] |
| --- | --- | --- |
| Cc1cc(-c2nc(C(=O)Nc3cc4c(C)n(C)nc4nc3N3CCCCC3)co2)ccn1 [Example 26, N-(2,3-dimethyl-6-(piperidin-1-yl)-2H-pyrazolo[3,4-b]pyridin-5-yl)-2-(2-methylpyridin-4-yl)oxazole-4-carboxamide] | 94 | 97 |
| Cc1c2cc(NC(=O)c3coc(-c4ccnc(N)c4)n3)c(N3CCCCC3)nc2nn1C [Example 27, 2-(2-aminopyridin-4-yl)-N-(2,3-dimethyl-6-(piperidin-1-yl)-2H-pyrazolo[3,4-b]pyridin-5-yl)oxazole-4-carboxamide] | 97 | 98 |
| Cc1cc(-c2nc(C(=O)Nc3cc4c(C)nn(C)c4nc3N3CCC(CO)CC3)co2)ccn1 [Example 28, N-(6-(4-(hydroxymethyl)piperidin-1-yl)-1,3-dimethyl-1H-pyrazolo[3,4-b]pyridin-5-yl)-2-(2-methylpyridin-4-yl)oxazole-4-carboxamide] | 89 | 97 |
| Cc1nn(C)c2nc(N3CCC(CO)CC3)c(NC(=O)c3coc(-c4ccnc(N)c4)n3)cc12 [Example 29, 2-(2-aminopyridin-4-yl)-N-(6-(4-(hydroxymethyl)piperidin-1-yl)-1,3-dimethyl-1H-pyrazolo[3,4-b]pyridin-5-yl)oxazole-4-carboxamide] | 97 | 99 |
| COCCn1nc(C)c2cc(NC(=O)c3coc(-c4ccnc(N)c4)n3)c(N3CCC(CO)CC3)nc21 [Example 30, 2-(2-aminopyridin-4-yl)-N-(6-(4-(hydroxymethyl)piperidin-1-yl)-1-(2-methoxyethyl)-3-methyl-1H-pyrazolo[3,4-b]pyridin-5-yl)oxazole-4-carboxamide] | 86 | 99 |
| CN1CCN(CCn2ncc3cc(NC(=O)c4coc(-c5ccnc(N)c5)n4)c(N4CCC(O)CC4)cc32)CC1 [Example 31, 2-(2-aminopyridin-4-yl)-N-(6-(4-hydroxypiperidin-1-yl)-1-(2-(4-methylpiperazin-1-yl)ethyl)-1H-indazol-5-yl)oxazole-4-carboxamide hydrochloride] | 99 | 99 |
| O=C(Nc1cc2cnn(C3CCNCC3)c2cc1C1CC1)c1cccc(N2CCC(O)C2)n1 (centres unmarked) [Example 32, N-(6-cyclopropyl-1-(piperidin-4-yl)-1H-indazol-5-yl)-6-(3-hydroxypyrrolidin-1-yl)picolinamide hydrochloride] | 19 | 80 |
| Cn1ncc2cc(NC(=O)c3cccc(N4CCC(O)C4)n3)c(N3CCCCC3)cc21 (centres unmarked) [Example 33, 6-(3-hydroxypyrrolidin-1-yl)-N-(1-methy-6-(piperidin-1-yl)-1H-indazol-5-yl)picolinamide] | 43 | 81 |
| C=CCOCC1CCN(c2cc3c(cc2NC(=O)c2coc(-c4cccc(N)n4)n2)c(C)nn3C)CC1 [Example 34] | 25 | 46 |
| CCOCC1CCN(c2cc3c(cc2NC(=O)c2coc(-c4ccnc(N)c4)n2)c(C)nn3C)CC1 [Example 35, 2-(2-aminopyridin-4-yl)-N-(6-(4-(ethoxymethyl)piperidin-1-yl)-1,3-dimethyl-1H-indazol-5-yl)oxazole-4-carboxamide] | 95 | 96 |
| Cc1nn(C)c2cc(N3CCC(COCC4CC4)CC3)c(NC(=O)c3coc(-c4ccnc(N)c4)n3)cc12 [Example 36, 2-(2-aminopyridin-4-yl)-N-(6-(4-((cyclopropylmethoxy)methyl)piperidin-1-yl)-1,3-dimethyl-1H-indazol-5-yl)oxazole-4-carboxamide] | 81 | 85 |
| Cc1nn(C)c2cc(N3CCC(CO)CC3)c(NC(=O)c3cccc(-c4ccc(N)nc4)n3)cc12 [Example 37, 6′-amino-N-(6-(4-(hydroxymethyl)piperidin-1-yl)-1,3-dimethyl-1H-indazol-5-yl)-[2,3′-bipyridine]-6-carboxamide hydrochloride] | 14 | 75 |
| Cc1nn(C)c2cc(N3CCC(CO)CC3)c(NC(=O)c3coc(-c4cc(N)ncc4Cl)n3)cc12 [Example 38, 2-(2-amino-5-chloropyridin-4-yl)-N-(6-(4-(hydroxymethyl)piperidin-1-yl)-1,3-dimethyl-1H-indazol-5-yl)oxazole-4-carboxamide hydrochloride] | 50 | 90 |
| Cc1nn(C)c2cc3c(cc12)NC(=O)c1coc(n1)-c1ccnc(c1)NCCCOCC1CCN3CC1 [Example 39, (Z)-51,53-dimethyl-51H-8-oxa-4,12-diaza-2(2,4)-oxazola-5(5,6)-indazola-1(4,2)-pyridina-6(1,4)-piperidinacyclododecaphan-3-one] | 4 | 72 |
| Cn1cc2cc(NC(=O)c3ccc(N4CCC(O)C4)cn3)c(N3CCCCC3)nc2n1 (centres unmarked) [Example 40, 5-(3-hydroxypyrrolidin-1-yl)-N-(2-methyl-6-(piperidin-1-yl)-2H-pyrazolo[3,4-b]pyridin-5-yl)picolinamide] | 0 | 57 |
| Cn1cc2cc(NC(=O)c3coc(-c4cccc(N)n4)n3)c(N3CCCCC3)cc2n1 [Example 41, 2-(6-aminopyridin-2-yl)-N-(2-methyl-6-(piperidin-1-yl)-2H-indazol-5-yl)oxazole-4-carboxamide] | 96 | 97 |
| Cn1cc2cc(NC(=O)c3coc(-c4cccc(N)n4)n3)c(N3CCOCC3)cc2n1 [Example 42, 2-(6-aminopyridin-2-yl)-N-(2-methyl-6-morpholino-2H-indazol-5-yl)oxazole-4-carboxamide] | 86 | 97 |
| Cn1cc2cc(NC(=O)c3cccc(-c4ccnc(N)c4)n3)c(N3CCCCC3)cc2n1 [Example 43, 2′-amino-N-(2-methyl-6-(piperidin-1-yl)-2H-indazol-5-yl)-[2,4′-bipyridine]-6-carboxamide hydrochloride] | 97 | 96 |
| Cn1cc2cc(NC(=O)c3cccc(-c4ccc(N)nc4)n3)c(N3CCCCC3)cc2n1 [Example 44, 6′-amino-N-(2-methyl-6-(piperidin-1-yl)-2H-indazol-5-yl)-[2,3′-bipyridine]-6-carboxamide] | 98 | 97 |
| COc1ccc(C(=O)Nc2cc3cn(C)nc3cc2N2CCCCC2)nc1-c1ccnc(N)c1 [Example 45, 2′-amino-3-methoxy-N-(2-methyl-6-(piperidin-1-yl)-2H-indazol-5-yl)-[2,4′-bipyridine]-6-carboxamide] | 9 | 27 |
| Cn1cc2cc(NC(=O)c3cccc(-c4cccc(N)n4)n3)c(N3CCCCC3)cc2n1 [Example 46, 6′-amino-N-(2-methyl-6-(piperidin-1-yl)-2H-indazol-5-yl)-[2,2′-bipyridine]-6-carboxamide] | 93 | 96 |
| Cn1cc2cc(NC(=O)c3cccc(-c4ccnc(N)n4)n3)c(C3CC3)cc2n1 [Example 47, 6-(2-aminopyrimidin-4-yl)-N-(6-cyclopropyl-2-methyl-2H-indazol-5-yl)picolinamide] | 77 | 95 |
